SMILES strings stand for the structures.

Series [1] relates to Mouse muscle cells (C2C12). Kind of series: Muscle atrophy induced by cancer cell-conditioned medium (CCM, CT26): myotube differentiation by immunofluorescence. It counts as cell-based. As to conditions: CCM-induced atrophied cells, 2.5 μM, 48 hours. The procedure: First, mouse muscle cells (C2C12) were cultured, and the culture medium was replaced with cancer cell-conditioned medium (CCM) from cultured CT26 (colon carcinoma) cells to induce muscle atrophy.
Mouse muscle cells (C2C12) were first cultured, and then their medium was replaced with cancer cell-conditioned medium (CCM) from cultured mouse colon carcinoma cells (CT26) to induce muscle atrophy. The cells were treated with either 2.5 μM of ursolic acid alone or ursolic acid-glycated albumin and incubated for 48 hours. Thereafter, fluorescence expression was confirmed to evaluate the level of myotube differentiation.
Mouse muscle cells (C2C12) were first cultured, and their medium was replaced with cancer cell-conditioned medium (CCM) from cultured mouse colon carcinoma cells (CT26) to induce muscle atrophy. The cells were treated with either 2.5 μM of soyasapogenol B alone or soyasapogenol B-glycated albumin and incubated for 48 hours. Thereafter, fluorescence expression was confirmed to evaluate the level of myotube differentiation.
Mouse muscle cells (C2C12) were first cultured, and their medium was replaced with cancer cell-conditioned medium (CCM) from cultured mouse colon carcinoma cells (CT26) to induce muscle atrophy. The cells were treated with either 2.5 μM of citrusinol alone or citrusinol-glycated albumin and incubated for 48 hours. Thereafter, fluorescence expression was confirmed to evaluate the level of myotube differentiation.

The subject of series [2] is Mouse muscle cells (C2C12). The series is described as follows: Cytotoxicity by DAPI nuclei count. It counts as cell-based. The conditions noted are these: apigenin 2.5 and 5 μM, 96 hours. The procedure: After 96 hours of incubation, cell nuclei were stained with DAPI.
Series [3] deals with MHC, IGF-IR, p-AKT, p-Foxo3a, MuRF1 in C2C12. The series is described as follows: Western blot of muscle generation and degradation proteins in CCM-treated cells. It counts as cell-based, mouse. On the technique in general: A western blot detects proteins with antibodies after separation by electrophoresis.
From the text: Meanwhile, to evaluate the effect of the apigenin-glycated albumin composite on the expression of genes related to muscle generation and degradation, proteins were extracted from the cells of each experimental group and analyzed via western blotting.
For series [4], the system named is Mouse muscle cells (C2C12). Kind of series: Muscle cell atrophy induced by cisplatin: myotube differentiation by immunofluorescence. Format: cell-based. The conditions noted are these: 40 μM cisplatin, 2.5 and 5 μM, 48 hours.
In series [5] the test system is MHC, MyoG (myogenin) in C2C12. The series is described as follows: Western blot of MHC and MyoG in cisplatin-treated cells. Format: cell-based, mouse. As to conditions: reduced by cisplatin treatment. The procedure:
Additionally, proteins were extracted from each experimental cell group, and western blot analysis was conducted to examine the expression level of MyoG (myogenin), which induces muscle generation.

Series [6] concerns RAW cells polarized from M0 to M1. Kind of series: M1-type macrophage inhibition: cell morphology and intracellular/extracellular ROS levels. Format: cell-based.

For the compound `CC1(C)C[C@@H](O)[C@]2(C)CC[C@]3(C)C(=CC[C@@H]4[C@@]5(C)CC[C@H](O)[C@](C)(CO)[C@@H]5CC[C@]43C)[C@@H]2C1` [soyasapogenol B], the “MHC expression (immunofluorescence)” value in series [1] is “increased”.

Turning to `O=c1cc(-c2ccc(O)cc2)oc2cc(O)cc(O)c12` [apigenin], the “cytotoxicity (number of DAPI-stained nuclei)” value in series [2] is given as “neither the apigenin alone nor the apigenin-glycated albumin composite exhibited cytotoxicity”. Moreover, in series [3] (CCM treatment), the “expression of IGF-IR” value is reported as “increased expression”, the “expression of MHC” value is reported as “increased expression”, the “expression of p-AKT” value was “increased expression” and the “expression of p-Foxo3a” value is recorded as “increased expression”. For the same compound, in series [3] (elevated by CCM treatment), the MuRF1 expression entry is recorded as “reduced”. For the same compound, the “atrophy caused by cisplatin” value in series [4] is recorded as “inhibited”. Besides, in series [5], the MHC expression entry is recorded as “increased” and the MyoG expression result is “increased”. Further, the RAW cell morphology entry in series [6] (RAW cells polarized from M0 to M1, FIG. 7a) was “maintained in the M0 type”. Besides, in series [6] (RAW cells polarized from M0 to M1, FIG. 7b), the “ROS levels (intracellular/extracellular)” value was “ROS reduction was observed”.

Take `CC1(C)C=Cc2c(cc(O)c3c(=O)c(O)c(-c4ccc(O)cc4)oc23)O1` [citrusinol]: the “MHC expression (immunofluorescence)” value in series [1] was “increased”.

On to `C[C@H]1[C@H](C)CC[C@]2(C(=O)O)CC[C@]3(C)C(=CC[C@@H]4[C@@]5(C)CC[C@H](O)C(C)(C)[C@@H]5CC[C@]43C)[C@H]12` [ursolic acid], for which, in series [1], the “MHC expression (immunofluorescence)” value was “increased”.
